# Source: patent publication US9783534B2 (priority 2013, dated 2017)
# Read-outs that look alike come from different tables or passages of the source.
# Legend:
# Phytophthora infestans = format: in vivo; conditions: tomato, protective, 50 g a.i./liter SC formulation, evaluation 3 days after inoculation
# Plasmopara viticola = test: Plasmopara test (vine)/protective; format: in vivo; conditions: protective, 50 g a.i./liter SC formulation, evaluation 6 days after inoculation
# Excerpt: To produce a suitable active ingredient preparation, formulations are suspended with water and diluted to the desired concentration. In the present case, both the known amorphous modification of the substance 2-{3-[2-(1-{[3,5-bis(difluoromethyl)-1H-pyrazol-1-yl]acetyl}piperidin-4-yl)-1,3-thiazol-4-yl]-4,5-dihydro-1,2-oxazol-5-yl}-3-chlorophenylmethanesulphonate (form A), as well as the inventive crystalline form of the substance 2-{3-[2-(1-{[3,5-bis(difluoromethyl)-1H-pyrazol-1-yl]acetyl}piperidin-4-yl)-1,3-thiazol-4-yl]-4,5-dihydro-1,2-oxazol-5-yl}-3-chlorophenylmethanesulphonate (form B) are used as 50 g a.i./liter of SC formulation.
# To test for protective effectiveness, young plants are sprayed with the active ingredient preparation at the stated application rate. After initial drying of the spray coating, the plants are inoculated with an aqueous spore suspension of Plasmopara viticola and then remain in an incubation cabin for 1 day at approx. 20° C. and 100% relative atmospheric humidity. The plants are then placed in a greenhouse at approx. 21° C. and approx. 90% atmospheric humidity for 4 days. The plants are then moistened and placed in an incubation cabin for 1 day.
# Evaluation is carried out 6 days after the inoculation. 0% here means an efficacy which corresponds to that of the control, whereas an efficacy of 100% means that no infection is observed.
# [1] = Stability of the solid form on storage; format: physicochemical; conditions: prolonged storage
# [2] = application rate 0.05 ppm active ingredient
# [3] = application rate 0.1 ppm active ingredient
# [4] = application rate 0.2 ppm active ingredient
smiles,measurement,setting,value
"CS(=O)(=O)Oc1cccc(Cl)c1C1CC(c2csc(C3CCN(C(=O)Cn4nc(C(F)F)cc4C(F)F)CC3)n2)=NO1 (single isomer, unassigned) [Form A, 2-{3-[2-(1-{[3,5-bis(difluoromethyl)-1H-pyrazol-1-yl]acetyl}piperidin-4-yl)-1,3-thiazol-4-yl]-4,5-dihydro-1,2-oxazol-5-yl}-3-chlorophenylmethanesulphonate, reference compound]",Efficacy in %,Phytophthora infestans; [2],0%
same,Efficacy in %,Phytophthora infestans; [3],15%
same,Efficacy in %,Phytophthora infestans; [4],40%
same,Efficacy in %,Plasmopara viticola; [2],0%
same,Efficacy in %,Plasmopara viticola; [3],6%
same,Efficacy in %,Plasmopara viticola; [4],35%
"CS(=O)(=O)Oc1cccc(Cl)c1C1CC(c2csc(C3CCN(C(=O)Cn4nc(C(F)F)cc4C(F)F)CC3)n2)=NO1 (single isomer, unassigned) [Form B, 2-{3-[2-(1-{[3,5-bis(difluoromethyl)-1H-pyrazol-1-yl]acetyl}piperidin-4-yl)-1,3-thiazol-4-yl]-4,5-dihydro-1,2-oxazol-5-yl}-3-chlorophenylmethanesulphonate]",Efficacy in %,Phytophthora infestans; [2],40%
same,Efficacy in %,Phytophthora infestans; [3],60%
same,Efficacy in %,Phytophthora infestans; [4],76%
same,Efficacy in %,Plasmopara viticola; [2],0%
same,Efficacy in %,Plasmopara viticola; [3],35%
same,Efficacy in %,Plasmopara viticola; [4],75%
same,thermodynamic stability / conversion into another form,[1],not converted into another form even on prolonged storage
